Data set [1] deals with GloResponse SIE-luc2P/HEK 293 cells. Briefly: BCA protein concentration of reporter cells run in parallel. The data set is classed as cell-based.
Data set [2] deals with STAT3 reporter, induction by interleukin-6. Briefly: STAT3 reporter GloResponse SIE-luc2P/HEK293 cell assay, IL-6 induction.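 As to all read-outs here: IL-6 added at 40 ng/mL (EC80) for roughly one day after pretreatment, luciferase luminescence read with Bio-Glo reagent, untreated +IL6 wells serve as control.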 It counts as cell-based. Conditions: for effect on IL-6 induction of STAT3 reporter: 24 hours and 48 hours treatment prior to IL-6.
A further data set concerns PANC-1 cells. Kind of data set: PANC-1 growth inhibition with or without Gemcitabine. The note with it: for Absorbance: 72 hours.
The next data set relates to PANC-1 xenograft. Kind of data set: PANC-1 xenograft, sdAb alone, Gemcitabine alone or combination, Example 19. The note with it: for BODY WEIGHT (g) Mean / TUMOR VOLUMES (mm^3) Mean / % INHIBITION OF CONTROL (tumor growth): SBT-100 5 mg/kg BID, Gemcitabine 20 mg/kg, or both.
Data set [3] concerns the target T1, active human TNF-α full length protein (Homo sapiens, UniProt P01375).
T1 construct: purchased Abcam
Briefly: TNF ELISA, binding of anti-TNF-α sdAbs to coated TNF-α protein. Conditions: for detection in coated versus non-coated wells: 1 μg/mL sdAb, 0.5 μg/mL coating antigen; for binding to the TNF-α protein, detection: Experiment 1, 1 μg/mL sdAb; for OD450 Values: Non-Coated wells, sdAb 1 μg/mL, non-specific binding. As to the method:
In this Example, the binding of anti-TNF-α sdAbs to active human TNF-α full length protein was assessed using an enzyme linked immunosorbent assay (ELISA) format. Additionally, the feasibility of utilizing a secondary antibody targeted to the his tag portion of the sdAbs was assessed.
Plates were incubated overnight at 2-8° C. After the incubation, plates were washed (3×) and blocked (3% Bovine Serum Albumin (BSA) in Phosphate Buffered Saline (PBS)) for at least one hour at room temperature.
After removal of the blocking buffer and washing (3×), samples were added to the appropriate wells of the ELISA plates and incubated at room temperature with shaking (150 rpm) for at least one hour. The secondary antibody (rabbit anti-llama biotinylated antibody at either a 1:5,000 or 10,000 dilution) was then added to each well and incubated with shaking for at least one hour at room temperature.
After the incubation with secondary antibody, the plates were again washed (3×) and horseradish peroxidase (HRP) at either a 1:25,000 or 1:50,000 dilution was added to each well. Plates were incubated with shaking for at least one hour at room temperature. A final wash (3×) was performed followed by the addition of TMB (Tetramethylbenzidine) substrate. After a 20 to 25 minute incubation at room temperature, stop solution was added to halt the colorimetric reaction. The absorbance at 450 nm was measured on a VersaMax instrument utilizing SoftMax Pro GxP version 5.4 software from Molecular Devices (Sunnyvale, Calif.).
The final experiment performed was to confirm that the results from the ELISA testing were due to binding to the TNF-α protein and not non-specific binding of the sdAb. For this determination, a comparison was made between wells coated with 0.5 μg/mL of coating antigen and non-coated wells. […] This experiment confirms that the detection seen with the previous experiments was due to the specific binding of the VHH to the coating antigen and not due to non-specific binding.
Background: An ELISA detects its analyte on a solid surface through an enzyme-linked reagent.

Data set [4] has as its system rabbit anti-llama biotinylated antibody or his-probe (H-3) biotin labeled antibody. Briefly: ELISA with sdAbs coated, binding of secondary antibodies (Experiments 2 and 3). As to the method: Two assays (Experiment 2 and 3) were performed to assess the binding of the secondary antibody to the sdAbs. A similar ELISA method was utilized except the sdAbs were directly coated onto the assay plate at a concentration of 1 μg/mL. Plates were incubated overnight at 2-8° C. After the incubation, plates were washed (3×) and blocked (3% BSA in PBS) for at least one hour at room temperature.
After removal of the blocking buffer and washing (3×), the secondary antibodies, either rabbit anti-llama biotinylated antibody or his-probe (H-3) biotin labeled antibody at was then added at a 1:5,000 dilution to each well and incubated with shaking for at least one hour at room temperature. Only the rabbit anti-llama biotinylated antibody was used in Experiment 2. Both antibodies were run in parallel in Experiment 3.
After the incubation with secondary antibody, the plates were again washed (3×) and HRP at a 1:50,000 dilution was added to each well. Plates were incubated with shaking for at least one hour at room temperature. One last wash (3×) was performed followed by the addition of TMB substrate and plates were incubated at room temperature. For the anti-llama biotinylated antibody stop solution was added to halt the colorimetric reaction at 10 minutes. The his-probe (H-3) biotin labeled antibody was allowed to incubate for 20 minutes prior to stopping. The absorbance at 450 nm was measured as before.

[5] abbreviates: 24 Hour Treatment Prior to IL6 Induction, high conc.: VHH13 55.8 μg/mL, VHH14 84.3 μg/mL, BB1608 4.16 μM, VHH69 50.5 μg/mL.
The mark [6] stands for this setting: 24 Hour Treatment Prior to IL6 Induction, low conc.: VHH13, VHH14, VHH69 10 μg/mL, BB1608 2 μM.
The mark [7] stands for this setting: 48 Hour Treatment Prior to IL6 Induction, high conc.: VHH13 55.8 μg/mL, VHH14 84.3 μg/mL, BB1608 4.16 μM, VHH69 50.5 μg/mL.
[8] abbreviates: 48 Hour Treatment Prior to IL6 Induction, low conc.: VHH13, VHH14, VHH69 10 μg/mL, BB1608 2 μM.
The mark [9] stands for this setting: His-probe (H-3), Experiment 3, stored 1:100 dilution of sdAb.
[10] abbreviates: Rabbit anti-Llama Secondary Antibody, Experiment 2, sdAb coated at 1 μg/mL.
[11] abbreviates: Rabbit anti-Llama Secondary Antibody, Experiment 3, stored 1:100 dilution of sdAb.

“And” between values parts separate entries of the source, which are not always exact repeats. Equal entries are not always repeated.

T1 sequence (P01375 77-233 limits assumed): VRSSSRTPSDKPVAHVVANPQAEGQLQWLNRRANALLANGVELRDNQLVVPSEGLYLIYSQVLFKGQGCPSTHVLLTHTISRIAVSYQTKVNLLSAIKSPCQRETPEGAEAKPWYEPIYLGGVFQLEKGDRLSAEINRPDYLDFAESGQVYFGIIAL

On to `CC(=O)c1cc2c(o1)C(=O)c1ccccc1C2=O` [BB1608, napabucasin, reference compound], for which the Protein concentration in data set [1] (setting [5]) amounted to 174; in data set [1] (setting [6]) it was 425; in data set [1] (setting [7]), 165; in data set [1] (setting [8]), 324. Further, the “Average RLU” value in data set [2] (setting [5]) was determined as 33 RLU; in data set [2] (setting [6]), 38 RLU; in data set [2] (setting [7]), 29 RLU; in data set [2] (setting [8]) it was 33 RLU. In addition, the “Average RLU with Media Blank” value in data set [2] (setting [5]) is 8 RLU; in data set [2] (setting [6]), 12 RLU; in data set [2] (setting [7]) it was −3 RLU; in data set [2] (setting [8]), 0 RLU. For the same molecule, the “Fold-Induction RLU/RLU of-IL6” value in data set [2] (setting [5]) and in data set [2] (setting [6]) was 0 in each case. Besides, the “Luminescence (RLU), single wells” value in data set [2] (setting [5]) is 41 RLU and 28 RLU and 31 RLU; in data set [2] (setting [6]), 41 RLU and 33 RLU and 39 RLU; in data set [2] (setting [7]), 25 RLU and 31 RLU and 32 RLU; in data set [2] (setting [8]), 26 RLU and 42 RLU and 31 RLU. For the same molecule, the “Fold-Induction RLU/RLU of−IL6” value in data set [2] (setting [7]) and in data set [2] (setting [8]) was 0 throughout. In addition, in data set [2], the “effect on IL-6 induction of STAT3 reporter” value is “Inhibition of IL-6”.
As to `Nc1ccn([C@@H]2O[C@H](CO)[C@@H](O)C2(F)F)c(=O)n1` [Gemcitabine], the Absorbance with PANC-1 cells (Gemcitabine 0.020 μM in DMSO) stood at 1.560; with PANC-1 cells (Gemcitabine 0.039 μM in DMSO), 1.240; with PANC-1 cells (Gemcitabine 0.625 μM in DMSO) it was 1.050; in the data set on PANC-1 cells (Gemcitabine 5 μM in DMSO), 0.631; in the data set on PANC-1 cells (Gemcitabine 10 μM in DMSO) it was 0.543. Also, the IC50 in the data set on PANC-1 cells (Homo sapiens, PANC-1, read-out: IC50 concentration) was determined as 10 µM. The “Mean Tumour Size (mm^3) Day 1” value with PANC-1 xenograft (Day 1 (start of treatment), SBT-100 5 mg/kg IP BID × 14, Gemcitabine 20 mg/kg IP QD × 7, or both) is on record as 122.23 ± 23.46 mm^3. The “BODY WEIGHT (g) Mean” value with PANC-1 xenograft (Day 1) came to 23.77 g; in the data set with PANC-1 xenograft (Day 5) it was 23.47 g; in the data set with PANC-1 xenograft (Day 8), 23.37 g; in the data set with PANC-1 xenograft (Day 12) it was 23.13 g; with PANC-1 xenograft (Day 19), 23.97 g; with PANC-1 xenograft (Day 22) it was 24.55 g. In addition, the “TUMOR VOLUMES (mm^3) Mean” value in the data set on PANC-1 xenograft (Day 1) was determined as 122.23 mm^3; with PANC-1 xenograft (Day 5), 165.57 mm^3; in the data set on PANC-1 xenograft (Day 8), 183.88 mm^3; in the data set on PANC-1 xenograft (Day 12), 191.6 mm^3; in the data set on PANC-1 xenograft (Day 15), 246.48 mm^3; in the data set on PANC-1 xenograft (Day 19), 312.74 mm^3. In the data set with PANC-1 xenograft (Day 22), the “TUMOR VOLUMES (mm^3) Mean” value turned out to be 411.93 mm^3. The “% INHIBITION OF CONTROL (tumor growth)” value amounted to 19.51% in the data set with PANC-1 xenograft (Day 12), 23.17% with PANC-1 xenograft (Day 15), 23.26% with PANC-1 xenograft (Day 19) and 14.93% with PANC-1 xenograft (Day 22).

B1: anti-TNF-alpha VHH69: second anti-TNF-alpha single domain antibody, SEQ ID NO:46 (protein)
VHH: EVQLVESGGGSVLAGGSLRLSCVASGFTSRYNYMAWFRQAPGKEREGVATIGTASGSADYYGSVKDRFTISQDNAKNTVYLQMNSLKPEDTAMYYCAARTYGTISLTPSDYRYWGQGTLVTVSS
modifications: Camelid
Regarding B1, the “detection in coated versus non-coated wells” value in data set [3] is “detected in coated wells but not in non-coated wells”. Also, the “binding to the TNF-α protein, detection” value in data set [3] is “little to no detection”. Besides, the “OD450 Values” in data set [3] is listed as 0.007; in data set [4] (setting [9]), 0.153; in data set [4] (setting [10]), 0.499; in data set [4] (setting [11]), 0.443. In addition, the Protein concentration in data set [1] (setting [5]) is 213; in data set [1] (setting [6]), 237; in data set [1] (setting [8]) it was 222. Further, the “Average RLU” value in data set [2] (setting [5]) is recorded as 198596 RLU; in data set [2] (setting [6]), 169752 RLU; in data set [2] (setting [7]) it was 225726 RLU; in data set [2] (setting [8]) it was 172988 RLU. Moreover, the “Average RLU with Media Blank” value in data set [2] (setting [5]) is recorded as 198571 RLU; in data set [2] (setting [6]) it was 169726 RLU; in data set [2] (setting [7]), 225694 RLU; in data set [2] (setting [8]) it was 172955 RLU. In addition, the “Fold-Induction RLU/RLU of-IL6” value in data set [2] (setting [5]) is reported as 434; in data set [2] (setting [6]), 371. Moreover, the “Luminescence (RLU), single wells” value in data set [2] (setting [5]) was 203139 RLU and 194320 RLU and 198330 RLU; in data set [2] (setting [6]) it was 159115 RLU and 184364 RLU and 165776 RLU; in data set [2] (setting [7]), 237816 RLU and 220259 RLU and 219104 RLU; in data set [2] (setting [8]) it was 191241 RLU and 171796 RLU and 155927 RLU. Also, the entries for the “Fold-Induction RLU/RLU of−IL6” value in data set [2] (setting [7]) and in data set [2] (setting [8]) were 452 and 347, respectively. Moreover, in data set [2], the “effect on IL-6 induction of STAT3 reporter” value is reported as “enhancement of the IL-6 induction”.

B2: anti-TNF-alpha VHH62: third anti-TNF-alpha single domain antibody, SEQ ID NO:47 (protein)
VHH: QVQLVESGGGPVQAGETLRLSCTASGFTFAEADMGWYRQAPGHECELVSTITTEGITSEASSYYADSVRGRFTISRDNAKNMVYLQMNSLKPEDTAVYYCAPDPYAYSTYSDYCSWAQGTQGTLVTVSS
modifications: Camelid
Turning to B2, the “detection in coated versus non-coated wells” value in data set [3] is given as “not detected in either coated or non-coated wells”. The “binding to the TNF-α protein, detection” value in data set [3] is “little to no detection”. The molecule further registered an OD values in data set [3] (Experiment 4, 10-fold serial dilutions starting at 1 μg/mL) of less than 0.2 OD450. For the same molecule, the “OD450 Values” is given as −0.001 in data set [3], 0.196 in data set [4] (setting [9]), 1.485 in data set [4] (setting [10]) and 2.341 in data set [4] (setting [11]).

Source of the values: patent US20170327598A1, “SINGLE DOMAIN ANTIBODIES DIRECTED AGAINST INTRACELLULAR ANTIGENS” (SINGH MOLECULAR MEDICINE, LLC, priority 2014, published 2017).
